Results taken from patent US6887896B1, “7-[(7-Alkoxy)-chrom-3-en-6-yl]-heptatrienoic acid and 7-[(3-alkoxy)-5,6-dihydronaphthalen-2-yl]-heptatrienoic acid derivatives having serum glucose reducing activity” (Allergan, Inc., priority 2003, dated 2005).

Experiments:
RXRα = target: T1, RXRα (Homo sapiens, UniProt P19793); assay: holoreceptor transactivation assay, RXRα; assay type: cell-based; settings: for EC50: holoreceptor transactivation, read-out: RXR Trans. EC50 α; for Emax: percentage compared to the standard compound, read-out: RXR Trans. efficacy (number in parentheses) α
T1 construct: expressed in transfected cells
T1 sequence (P19793 1-462): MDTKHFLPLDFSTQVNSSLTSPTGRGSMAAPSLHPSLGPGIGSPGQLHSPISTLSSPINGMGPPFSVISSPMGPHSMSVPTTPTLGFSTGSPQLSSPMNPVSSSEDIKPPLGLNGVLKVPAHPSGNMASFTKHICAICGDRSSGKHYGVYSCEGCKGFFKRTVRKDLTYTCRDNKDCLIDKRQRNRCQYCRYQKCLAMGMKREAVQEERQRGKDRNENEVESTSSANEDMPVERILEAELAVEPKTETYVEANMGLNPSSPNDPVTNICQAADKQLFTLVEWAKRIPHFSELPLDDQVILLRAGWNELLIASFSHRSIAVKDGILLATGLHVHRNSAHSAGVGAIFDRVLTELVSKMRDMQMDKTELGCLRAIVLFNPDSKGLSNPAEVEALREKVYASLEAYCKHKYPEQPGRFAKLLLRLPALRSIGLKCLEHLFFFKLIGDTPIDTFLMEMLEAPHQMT
Source text: (§1) Specifically, one such assay is a chimeric receptor transactivation assay which tests for agonist-like activity in the R RAPE and RAR7 receptor subtypes, and which is based on work published by Feigner, P. L. and Holm, M (1989) Focus, 112 is described in detail in U.S. Pat. No. 5,455,265. The specification of U.S. Pat. No. 5,455,265 is hereby expressly incorporated by reference. A holoreceptor transactivation assay and a ligand binding assay which measure the antagonist/agonist like activity of the compounds of the invention, or their ability to bind to the several retinoid receptor subtypes, respectively, are described in published PCT Application No. WO WO93/11755 (particularly on pages 30-33 and 37-41) published on Jun. 24, 1993, the specification of which is also incorporated herein by reference. A detailed experimental procedure for holoreceptor transactivations has been described by Heyman et al. Cell 68, 397-406, (1992); Allegretto et al. J. Biol. Chem. 268, 26625-26633, and Mangelsdorf et al. The Retinoids: Biology, Chemistry and Medicine, pp 319-349, Raven Press Ltd., New York, which are expressly incorporated herein by reference. The results obtained in this assay are expressed in EC50 numbers, as they are also in the chimeric receptor transactivation assay. The results of the ligand binding assay are expressed in Ki numbers. (See Cheng et al. Biochemical Pharmacology Vol. 22 pp 3099-3108, expressly incorporated herein by reference.)
(§2) Efficacy in a transactivation assay is expressed as a percentage of the maximum potency attained by the compound compared to a standard which, in this case, is the compound named (2E,4E,1′S,2′S)-3-methyl-5-[2′-methyl-2′-(5,5,8,8-tetramethyl-5,6,7,8-tetrahydro-naphthalen-2-yl)-cyclopropyl]-penta-2,4-dienoic acid. This standard compound is described in U.S. Pat. No. 6,114,533.
(§3) The specification of this application for patent is organized in several sections in accordance with structural Formulas A through F each of which discloses a group of preferred compounds within the scope of the invention. Tables that disclose the activity of certain exemplary compounds of the invention in the above-described RXR receptor transactivation and binding assays are found in the corresponding sections. […] The transactivation data pertaining to the activation of RXR receptors were obtained in the holoreceptor assay.
(§4) Generally speaking, in the tables disclosing the results of transactivation and binding assays the numbers in parentheses indicate efficacy as a percentage compared to the standard compound, (2E,4E,1′S,2′S)-3-methyl-5-[2′-methyl-2′-(5,5,8,8-tetramethyl-5,6,7,8-tetrahydro-naphthalen-2-yl)cyclopropyl]-penta-2,4-dienoic acid and the other numbers indicate the measured EC50 and K; in nanomolar concentration.

RARα = target: T2, RARα (Homo sapiens, UniProt P10276); assay: ligand binding assay, RARα; settings: for Ki: read-out: RAR Bind. Ki α; for Kd: Table 9 (Formula F), read-out: RAR α Kd
T2 sequence (P10276 1-462): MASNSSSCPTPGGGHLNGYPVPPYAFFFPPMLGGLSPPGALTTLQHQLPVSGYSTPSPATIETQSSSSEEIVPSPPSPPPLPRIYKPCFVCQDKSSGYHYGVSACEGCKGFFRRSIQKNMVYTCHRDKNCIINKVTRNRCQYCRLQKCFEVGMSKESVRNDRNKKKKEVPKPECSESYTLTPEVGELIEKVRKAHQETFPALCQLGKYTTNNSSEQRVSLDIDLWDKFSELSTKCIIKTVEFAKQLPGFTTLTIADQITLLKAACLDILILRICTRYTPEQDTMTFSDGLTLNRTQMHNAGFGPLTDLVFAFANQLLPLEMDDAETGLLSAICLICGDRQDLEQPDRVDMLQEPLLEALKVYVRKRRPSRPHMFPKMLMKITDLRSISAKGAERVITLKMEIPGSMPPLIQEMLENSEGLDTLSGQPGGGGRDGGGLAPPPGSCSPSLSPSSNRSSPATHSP
Source text: as §1, §4

RARβ [1] = target: T3, RARβ (Homo sapiens, UniProt P10826); assay: ligand binding assay, RARβ; settings: for Ki: read-out: RAR Bind. Ki β; for Kd: Table 9 (Formula F), read-out: RAR β Kd
T3 sequence (P10826 1-455): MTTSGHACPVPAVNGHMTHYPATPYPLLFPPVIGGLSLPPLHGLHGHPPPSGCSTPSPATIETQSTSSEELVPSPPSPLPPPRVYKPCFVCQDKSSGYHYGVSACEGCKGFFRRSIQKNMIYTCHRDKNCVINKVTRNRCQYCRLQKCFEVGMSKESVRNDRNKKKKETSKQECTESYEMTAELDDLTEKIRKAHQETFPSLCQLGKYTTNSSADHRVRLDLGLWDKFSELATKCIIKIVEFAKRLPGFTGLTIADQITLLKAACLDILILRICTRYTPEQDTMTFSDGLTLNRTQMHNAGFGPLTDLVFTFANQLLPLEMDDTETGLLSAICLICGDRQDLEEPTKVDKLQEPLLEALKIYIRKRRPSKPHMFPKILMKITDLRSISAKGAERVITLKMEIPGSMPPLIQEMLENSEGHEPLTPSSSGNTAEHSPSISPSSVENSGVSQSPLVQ
Source text: as §1, §4

RARβ [2] = target: T4, RARβ (Homo sapiens, UniProt P10826); assay: chimeric receptor transactivation assay, RARβ; assay type: cell-based; settings: for EC50: chimeric receptor transactivation, read-out: RAR Trans. EC50 β; for Emax: percentage compared to the standard compound, read-out: RAR Trans. efficacy (number in parentheses) β
T4 sequence (P10826 183-417 limits assumed): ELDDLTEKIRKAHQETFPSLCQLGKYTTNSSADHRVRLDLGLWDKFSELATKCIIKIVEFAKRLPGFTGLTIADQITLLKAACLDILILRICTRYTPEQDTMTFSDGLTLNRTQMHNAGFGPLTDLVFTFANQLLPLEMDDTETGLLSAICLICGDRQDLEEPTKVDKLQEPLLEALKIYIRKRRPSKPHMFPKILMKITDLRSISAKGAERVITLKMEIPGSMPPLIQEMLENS
Source text: as §1, §2, §3, §4

Row | EC50 (RXRα) [nM] | Emax (RXRα) [%] | Ki (RARα) [nM] | Ki (RARβ [1]) [nM] | EC50 (RARβ [2]) [nM] | Emax (RARβ [2]) [%] | Kd (RARα) [nM] | Kd (RARβ [1]) [nM] | SMILES
1 | 1 | 62 | 615 |  | 829 | 62 |  |  | CCOc1cc2c(cc1\C(C)=C(F)/C=C/C(C)=C/C(=O)O)C(C(C)C)=CCC2(C)C [Compound A-79, (2E,4E,6E)-6-Fluoro-3-(4,4-dimethylethoxy-1-isopropyl-3,4-dihydronaphthalen-7-yl)-3-methyl-2.4,6-octa-trienoic acid]
2 | 0.4 | 66 |  |  |  |  | 70 | 252 | CCOc1c(\C(C)=C(F)/C=C/C(C)=C/C(=O)O)cc2c(c1Br)C(C)(C)CC=C2C(C)C [Compound A-169, (2E,4E,6E)-7-(4-Bromo-3-ethoxy-8-isopropyl-5,5-dimethyl-5,6-dihydro-naphthalen-2-yl)-6-fluoro-3-methyl-octa-2.4,6-trienoic acid]
3 | 19 | 31 |  |  |  |  | 141 | 212 | CC(/C=C/C(F)=C(/C)c1cc2c(c(Br)c1OC(C)C)C(C)(C)CC=C2C(C)C)=C\C(=O)O [Compound A-172, (2E,4E,6E)-7-(4-Bromo-3-isopropoxy-8-isopropyl-5,5-dimethyl-5,6-dihydro-naphthalen-2-yl)-6-fluoro-3-methyl-octa-2,4,6-trienoic acid]
4 | 1 | 24 |  |  |  |  | 997 | 517 | CCOc1c(\C(C)=C(F)/C=C/C(C)=C/C(=O)O)cc2c(c1Br)C(C)(C)CC=C2C(C)(C)C [Compound A-174, (2E,4E,6E)-7-(4-Bromo-8-tert-butyl-3-ethoxy-5,5-dimethyl-5,6-dihydro-naphthalen-2-yl)-6-fluoro-3-methyl-octa-2,4,6-trienoic acid]
5 | 0.1 | 72 |  |  |  |  | 60 | 443 | CCOc1c(\C(C)=C(F)/C=C/C(C)=C/C(=O)O)cc2c(c1Cl)C(C)(C)CC=C2C(C)C [Compound A-177, (2E,4E,6E)-7-(4-Chloro-3-ethoxy-8-isopropyl-5,5-dimethyl-5,6-dihydronaphthalen-2-yl)6-fluoro-3-methyl-octa-2,4,6-trienoic acid]

Continued, compound first:

Row | SMILES | EC50 (RXRα) [nM] | Emax (RXRα) [%] | Ki (RARα) [nM] | Ki (RARβ [1]) [nM] | EC50 (RARβ [2]) [nM] | Emax (RARβ [2]) [%] | Kd (RARα) [nM] | Kd (RARβ [1]) [nM]
6 | CCOc1c(\C(C)=C/C=C/C(C)=C/C(=O)O)cc2c(c1Cl)OC(C)(C)C=C2C(C)C [Compound 50, 7-(8-Chloro-4-isopropyl-7-ethoxy-2,2-dimethyl-2H-chromen-6-yl)-3-methyl-octa-2E,4E,6Z-trienoic acid] | 2 | 56 | 738 | 1300 |  |  |  | 
7 | CCOc1c(\C(=C/C=C/C(C)=C/C(=O)O)CC)cc2c(c1Cl)OC(C)(C)C=C2C(C)C [Compound 51] | 9 | 25 | 422 | 1400 |  |  |  | 
8 | CCC1=CC(C)(C)Oc2cc(OC)c(\C(C)=C(F)/C=C/C(C)=C/C(=O)O)cc21 [Compound 120, 7-(4Ethyl-7-methoxy-2,2-dimethyl-2H-chromen-6-yl)-6-fluoro-3-methyl-octa-2E,4E,6E-trienoic acid] | > 10000 |  | 4100 | 8100 |  |  |  | 
9 | COc1cc2c(cc1\C(C)=C(F)/C=C/C(C)=C/C(=O)O)C(C(C)(C)C)=CC(C)(C)O2 [Compound 122, 7-(4-tert-Butyl-7-methoxy-2,2-dimethyl-2H-chromen-6-yl)-6-fluoro-3-methyl-octa-2E,4E,6E-trienoic acid] | 5 | 36 | 800 | 1400 |  |  |  | 
10 | CCOc1cc2c(cc1\C(C)=C(F)/C=C/C(C)=C/C(=O)O)C(CC)=CC(C)(C)O2 [Compound 123, 7-(7-Ethoxy-4-ethyl-2,2-dimethyl-2H-chromen-6-yl)-6-fluoro-3-methyl-octa-2E,4E,6E-trienoic acid] | > 10000 |  | > 10000 | > 10000 |  |  |  | 
11 | CCOc1cc2c(cc1\C(C)=C(F)/C=C/C(C)=C/C(=O)O)C(c1ccccc1)=CC(C)(C)O2 [Compound 127, (2E,4E,6E)-7-(7-Ethoxy-2,2-dimethyl-4-phenyl-2H-chromen-6-yl)-6-fluoro-3-methyl-octa-2,4,6-trienoic acid] |  |  | 3700 | 1400 | 227 | 17 |  | 
12 | COc1c(\C(C)=C(F)/C=C/C(C)=C/C(=O)O)cc2c(c1Cl)OC(C)(C)C=C2C(C)C [Compound 170, 7-(8-Chloro-4-isopropyl-7-methoxy-2,2-dimethyl-2H-chromen-6-yl)-6-fluoro-3-methyl-octa-2E,4E,6E-trienoic acid] | 0.8 | 86 | 3400 | 2300 |  |  |  | 
13 | CCOc1c(\C(C)=C(F)/C=C/C(C)=C/C(=O)O)cc2c(c1Cl)OC(C)(C)C=C2C(C)C [Compound 172, 7-(8-Chloro-4-isopropyl-7-ethoxy-2,2-dimethyl-2H-chromen-6-yl)-6-fluoro-3-methyl-octa-2E,4E,6E-trienoic acid] | 5.4 | 52 | 404 | 442 |  |  |  | 
14 | CCOc1c(\C(CC)=C(F)/C=C/C(C)=C/C(=O)O)cc2c(c1Cl)OC(C)(C)C=C2C(C)C [Compound 173] | 4.8 | 18 | 102 | 431 |  |  |  | 
15 | CC(/C=C/C(F)=C(/C)c1cc2c(c(Cl)c1OC(C)C)OC(C)(C)C=C2C(C)C)=C\C(=O)O [Compound 174] | 59 | 8 | 532 | 1300 |  |  |  | 
16 | CCOc1cc2c(cc1\C(CC)=C(F)/C=C/C(C)=C/C(=O)O)C=CCC2(C)C [Compound A-77] | 41 | 69 | 301 | 371 |  |  |  | 
